Assay results published in patent publication US12540131B2 (Merck Sharp & Dohme LLC, priority 2019, dated 2026).

Biological target: GST tagged truncated human mutant G2019S LRRK2 (Homo sapiens (Human), UniProt Q5S007, G2019S)
Test: LRRK2 Km ATP LanthaScreen Assay
Type: biochemical
Conditions: G2019S LRRK2, 134 μM ATP (Km ATP), mean values
Outline: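 Enzyme (GST-tagged, truncated) was preincubated with compound for 15 min at RT in 50 mM Tris pH 8.5, 10 mM MgCl2, 0.01% Brij-35, 1 mM EGTA, 2 mM DTT and 0.05 mM orthovanadate. Fluorescein-LRRKtide and 134 μM ATP (Km) were then added for 90 min. EDTA and Tb-anti-pERM antibody stopped the reaction; the TR-FRET 520/495 ratio gave 4-parameter IC50s, reported as mean pIC50.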

Chain of GST tagged truncated human mutant G2019S LRRK2 (Q5S007 970-2527 G2019S): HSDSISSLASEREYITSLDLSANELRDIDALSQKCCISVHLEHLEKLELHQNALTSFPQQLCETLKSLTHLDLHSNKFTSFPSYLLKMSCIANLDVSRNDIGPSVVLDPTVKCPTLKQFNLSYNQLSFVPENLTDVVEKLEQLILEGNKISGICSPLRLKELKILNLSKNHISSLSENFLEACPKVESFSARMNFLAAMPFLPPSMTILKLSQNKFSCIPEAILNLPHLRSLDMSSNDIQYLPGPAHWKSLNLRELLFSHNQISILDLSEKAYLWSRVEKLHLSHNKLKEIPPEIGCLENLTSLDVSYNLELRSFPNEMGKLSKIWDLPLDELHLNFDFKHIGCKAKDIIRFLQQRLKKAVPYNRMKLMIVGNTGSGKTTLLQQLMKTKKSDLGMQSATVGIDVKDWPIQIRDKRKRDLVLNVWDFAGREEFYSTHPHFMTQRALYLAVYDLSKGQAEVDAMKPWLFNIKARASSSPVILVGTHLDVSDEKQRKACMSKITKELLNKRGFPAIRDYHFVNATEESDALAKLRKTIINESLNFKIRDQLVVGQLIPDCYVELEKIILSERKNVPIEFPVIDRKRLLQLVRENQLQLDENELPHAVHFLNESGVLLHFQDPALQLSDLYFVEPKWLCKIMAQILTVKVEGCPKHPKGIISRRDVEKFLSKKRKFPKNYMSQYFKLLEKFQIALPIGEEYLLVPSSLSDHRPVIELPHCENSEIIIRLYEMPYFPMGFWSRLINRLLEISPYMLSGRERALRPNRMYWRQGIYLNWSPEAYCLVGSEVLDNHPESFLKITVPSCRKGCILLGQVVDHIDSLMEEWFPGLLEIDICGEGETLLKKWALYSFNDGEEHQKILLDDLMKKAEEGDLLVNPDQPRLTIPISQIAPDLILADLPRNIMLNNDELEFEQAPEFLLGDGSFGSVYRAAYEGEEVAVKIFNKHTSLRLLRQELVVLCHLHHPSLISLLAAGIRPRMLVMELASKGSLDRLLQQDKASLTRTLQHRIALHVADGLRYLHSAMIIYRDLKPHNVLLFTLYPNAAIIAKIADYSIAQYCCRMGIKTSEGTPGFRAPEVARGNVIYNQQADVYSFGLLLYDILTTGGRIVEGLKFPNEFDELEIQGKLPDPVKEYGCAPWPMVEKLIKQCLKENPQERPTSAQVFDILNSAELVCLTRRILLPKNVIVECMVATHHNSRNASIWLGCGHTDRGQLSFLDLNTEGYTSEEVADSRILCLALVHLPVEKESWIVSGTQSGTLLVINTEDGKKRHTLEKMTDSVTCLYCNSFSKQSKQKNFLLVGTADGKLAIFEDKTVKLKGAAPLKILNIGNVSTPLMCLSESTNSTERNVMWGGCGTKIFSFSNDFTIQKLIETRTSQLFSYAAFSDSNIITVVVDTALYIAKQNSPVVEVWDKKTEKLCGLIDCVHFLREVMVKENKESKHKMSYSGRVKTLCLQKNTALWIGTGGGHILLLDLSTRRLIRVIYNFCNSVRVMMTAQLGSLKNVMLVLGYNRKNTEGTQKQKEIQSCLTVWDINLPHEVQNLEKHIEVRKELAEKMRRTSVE

| SMILES | LRRK2 pIC50 | IC50 (read-out: LRRK2 pIC50 (converted)) |
| --- | --- | --- |
| COC12CC(n3ncc(Nc4ncc5cc(Cl)c([C@@H]6CCN([C@@H]7COC[C@@H]7O)C[C@H]6F)cc5n4)c3Cl)(C1)C2 (single isomer, unassigned) [Ex-4.262, (3S,4S)(3S,4S) or (3S,4S)(3R,4R) or (3R,4R)(3S,4S) or (3R,4R)(3R,4R) 4-(4-(6-chloro-2-((5-chloro-1-(3-methoxybicyclo[1.1.1]pentan-1-yl)-1H-pyrazol-4-yl)amino)quinazolin-7-yl)-3-fluoropiperidin-1-yl)tetrahydrofuran-3-ol] | 9.19 | – |
| Cc1cc2cnc(Nc3cnn(C4CC4)c3C)nc2cc1[C@@H]1CCN(C2COC2)C[C@H]1F (single isomer, unassigned) [Ex-5.3, (3S,4S) or (3R,4R) N-(1-cyclopropyl-5-methyl-1H-pyrazol-4-yl)-7-[3-fluoro-1-(oxetan-3-yl)piperidin-4-yl]-6-methylquinazolin-2-amine] | 8.96 | – |
| Cc1cc2cnc(Nc3cnn(C4CC4)c3C)nc2cc1[C@H]1CCN(C2COC2)C[C@@H]1F (single isomer, unassigned) [Ex-5.4, (3S,4S) or (3R,4R) N-(1-cyclopropyl-5-methyl-1H-pyrazol-4-yl)-7-[3-fluoro-1-(oxetan-3-yl)piperidin-4-yl]-6-methylquinazolin-2-amine] | 8.75 | – |
| Cc1cc2cnc(Nc3cnn(CC(C)(C)O)c3C)nc2cc1[C@@H]1CCN(C2COC2)C[C@H]1F (single isomer, unassigned) [Ex-5.5, (3S,4S) or (3R,4R) 1-[4-({7-[3-fluoro-1-(oxetan-3-yl)piperidin-4-yl]-6-methylquinazolin-2-yl}amino)-5-methyl-1H-pyrazol-1-yl]-2-methylpropan-2-ol] | 8.37 | – |
| Cc1cc2cnc(Nc3cnn(CC(C)(C)O)c3C)nc2cc1[C@H]1CCN(C2COC2)C[C@@H]1F (single isomer, unassigned) [Ex-5.6, (3S,4S) or (3R,4R) 1-[4-({7-[3-fluoro-1-(oxetan-3-yl)piperidin-4-yl]-6-methylquinazolin-2-yl}amino)-5-methyl-1H-pyrazol-1-yl]-2-methylpropan-2-ol] | 8.68 | – |
| Cc1cc2cnc(Nc3cnn(C4CC4)c3C)nc2cc1C1CCN([C@@H]2COC[C@@H]2O)CC1 (single isomer, unassigned) [Ex-5.7, (3S,4S) or (3R,4R) 4-(4-{2-[(1-cyclopropyl-5-methyl-1H-pyrazol-4-yl)amino]-6-methylquinazolin-7-yl}piperidin-1-yl)oxolan-3-ol] | >9.20 | – |
| Cc1cc(Nc2ncc3cc(C)c([C@@H]4CCN([C@@H]5COC[C@@H]5O)C[C@H]4F)cc3n2)n(C)n1 (single isomer, unassigned) [Ex-5.9, (3S,4S)(3S,4S) or (3S,4S)(3R,4R) or (3R,4R)(3S,4S) or (3R,4R)(3R,4R) 4-(4-{2-[(1,3-dimethyl-1H-pyrazol-5-yl)amino]-6-methylquinazolin-7-yl}-3-fluoropiperidin-1-yl)oxolan-3-ol] | 8.49 | – |
| Cc1cc(Nc2ncc3cc(C)c([C@@H]4CCN([C@H]5COC[C@H]5O)C[C@H]4F)cc3n2)n(C)n1 (single isomer, unassigned) [Ex-5.10, (3S,4S)(3S,4S) or (3S,4S)(3R,4R) or (3R,4R)(3S,4S) or (3R,4R)(3R,4R) 4-(4-{2-[(1,3-dimethyl-1H-pyrazol-5-yl)amino]-6-methylquinazolin-7-yl}-3-fluoropiperidin-1-yl)oxolan-3-ol] | 6.66 | – |
| Cc1cc(Nc2ncc3cc(C)c([C@H]4CCN([C@@H]5COC[C@@H]5O)C[C@@H]4F)cc3n2)n(C)n1 (single isomer, unassigned) [Ex-5.11, (3S,4S)(3S,4S) or (3S,4S)(3R,4R) or (3R,4R)(3S,4S) or (3R,4R)(3R,4R) 4-(4-{2-[(1,3-dimethyl-1H-pyrazol-5-yl)amino]-6-methylquinazolin-7-yl}-3-fluoropiperidin-1-yl)oxolan-3-ol] | 8.57 | – |
| Cc1cc(Nc2ncc3cc(C)c([C@H]4CCN([C@H]5COC[C@H]5O)C[C@@H]4F)cc3n2)n(C)n1 (single isomer, unassigned) [Ex-5.12, (3S,4S)(3S,4S) or (3S,4S)(3R,4R) or (3R,4R)(3S,4S) or (3R,4R)(3R,4R) 4-(4-{2-[(1,3-dimethyl-1H-pyrazol-5-yl)amino]-6-methylquinazolin-7-yl}-3-fluoropiperidin-1-yl)oxolan-3-ol] | 6.03 | – |
| Cc1cc(Nc2ncc3cc(C)c(C4CCN([C@]5(C)COC[C@@H]5O)CC4)cc3n2)n(C)n1 (single isomer, unassigned) [Ex-5.13, (3S,4S)(3S,4S) or (3S,4S)(3R,4R) or (3R,4R)(3S,4S) or (3R,4R)(3R,4R) 4-(4-{2-[(1,3-dimethyl-1H-pyrazol-5-yl)amino]-6-methylquinazolin-7-yl}piperidin-1-yl)-4-methyloxolan-3-ol] | 9.00 | – |
| Cc1cc2cnc(Nc3cc(C(C)(C)C)nn3C)nc2cc1C1CCN([C@]2(C)COC[C@@H]2O)CC1 (single isomer, unassigned) [Ex-5.14, (3S,4S) or (3R,4R) 4-(4-{2-[(3-tert-butyl-1-methyl-1H-pyrazol-5-yl)amino]-6-methylquinazolin-7-yl}piperidin-1-yl)-4-methyloxolan-3-ol] | 9.02 | – |
| Cc1cc2cnc(Nc3cc(C(F)(F)F)nn3C)nc2cc1C1CCN([C@]2(C)COC[C@@H]2O)CC1 (single isomer, unassigned) [Ex-5.15, (3S,4S) or (3R,4R) 4-methyl-4-[4-(6-methyl-2-{[1-methyl-3-(trifluoromethyl)-1H-pyrazol-5-yl]amino}quinazolin-7-yl)piperidin-1-yl]oxolan-3-ol] | 8.42 | – |
| Cc1cc2cnc(Nc3cnn(C)c3C(F)(F)F)nc2cc1C1CCN([C@]2(C)COC[C@@H]2O)CC1 (single isomer, unassigned) [Ex-5.16, (3S,4S) or (3R,4R) 4-methyl-4-(4-(6-methyl-2-((1-methyl-5-(trifluoromethyl)-1H-pyrazol-4-yl)amino)quinazolin-7-yl)piperidin-1-yl)tetrahydrofuran-3-ol] | >9.20 | – |
| N#Cc1cc2cnc(Nc3cnn(C4CC4)c3Cl)nc2cc1[C@H]1CCN(C2COC2)C[C@@H]1F (single isomer, unassigned) [Ex-6.1, (3R,4R) or (3S,4S) 2-((5-chloro-1-cyclopropyl-1H-pyrazol-4-yl)amino)-7-(3-fluoro-1-(oxetan-3-yl)piperidin-4-yl)quinazoline-6-carbonitrile] | – | 1.91 nM |
| N#Cc1cc2cnc(Nc3cnn(C4CC4)c3Cl)nc2cc1[C@H]1CCN(C2COC2)C[C@@H]1F (single isomer, unassigned) [Ex-6.2, (3R,4R) or (3S,4S) 2-((5-chloro-1-cyclopropyl-1H-pyrazol-4-yl)amino)-7-(3-fluoro-1-(oxetan-3-yl)piperidin-4-yl)quinazoline-6-carbonitrile] | >9.20 | – |
| N#Cc1cc2cnc(Nc3cnn(C4CC4(F)F)c3Cl)nc2cc1[C@@H]1CCN(C2COC2)C[C@H]1F (single isomer, unassigned) [Ex-6.4, (R)(3S,4S) or (S)(3S,4S) or (R)(3R,4R) or (S)(3R,4R) 2-((5-chloro-1-(2,2-difluorocyclopropyl)-1H-pyrazol-4-yl)amino)-7-(3-fluoro-1-(oxetan-3-yl)piperidin-4-yl)quinazoline-6-carbonitrile] | 9.18 | – |
